Tests used:
TGF-β R1 ALK5 = target: T1, TGF-β R1 ALK5 (Homo sapiens, UniProt P36897); assay: In vitro inhibition of ALK5 (LanthaScreen activity assay, TR-FRET); type: biochemical
T1 construct: purchased Invitrogen PV5837
T1 sequence (P36897 34-503): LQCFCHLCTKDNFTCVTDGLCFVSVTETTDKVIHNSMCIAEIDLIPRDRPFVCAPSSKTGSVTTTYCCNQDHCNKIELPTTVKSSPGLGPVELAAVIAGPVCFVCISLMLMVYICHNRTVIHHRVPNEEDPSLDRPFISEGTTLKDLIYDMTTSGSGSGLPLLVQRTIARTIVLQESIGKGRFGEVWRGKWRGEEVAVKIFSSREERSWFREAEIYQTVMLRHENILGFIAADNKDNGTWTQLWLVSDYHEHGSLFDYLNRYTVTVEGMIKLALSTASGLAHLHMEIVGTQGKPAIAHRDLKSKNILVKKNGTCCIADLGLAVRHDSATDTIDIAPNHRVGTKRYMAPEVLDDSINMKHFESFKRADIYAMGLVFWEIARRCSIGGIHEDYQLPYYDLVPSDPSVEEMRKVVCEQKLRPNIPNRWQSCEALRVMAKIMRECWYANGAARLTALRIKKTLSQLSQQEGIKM

cellular TGF-β R1 ALK5 = target: T2, cellular TGF-β R1 ALK5 (Homo sapiens, UniProt P36897); assay: Cellular inhibition of ALK5 (CellSensor SBE-bla HEK 293T beta-lactamase reporter); type: cell-based; conditions: cellular inhibition of ALK5, SBE-bla HEK 293T cells, TGFb-1 stimulated 5 hours; average where measured in multiple experiments
T2 construct: host or cells: CellSensor SBE-bla HEK 293T
T2 sequence (P36897 34-503): T1 sequence (P36897 34-503)
Procedure, shortened: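 pIC50 derives from non-linear fitting of percent inhibition of the 460/530 nm CCF4-AM emission ratio, relative to DMSO+TGF-β wells. HEK 293T SBE-bla cells received compound (0.5% DMSO) for 1 h, TGFb-1 (100 ng/mL stock) for 5 h at 37 °C, then substrate 2 h at RT.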

Compound	IC50 (TGF-β R1 ALK5)	IC50 (cellular TGF-β R1 ALK5)
Cc1ccc(F)c(-c2cc(Nc3ccnc4cn(CC(O)C(F)(F)F)nc34)ccn2)n1 (centres unmarked) [Example 112, 1,1,1-trifluoro-3-(7-(3′-fluoro-6′-methyl-2,2′-bipyridin-4-ylamino)-2H-pyrazolo[4,3-b]pyridin-2-yl)propan-2-ol]	63.1 nM	501 nM
Cc1ccc(F)c(-c2cc(Nc3ccnc4cnn(CC(O)C(F)(F)F)c34)ccn2)n1 (centres unmarked) [Example 113, 1,1,1-trifluoro-3-(7-(3′-fluoro-6′-methyl-2,2′-bipyridin-4-ylamino)-1H-pyrazolo[4,3-b]pyridin-1-yl)propan-2-ol]	50.1 nM	1580 nM
Cc1ccc(F)c(-c2cc(Nc3ccnc4cn(C[C@@H](C)O)nc34)ccn2)n1 [Example 114, (R)-1-(7-(3′-fluoro-6′-methyl-2,2′-bipyridin-4-ylamino)-2H-pyrazolo[4,3-b]pyridin-2-yl)propan-2-ol]	158 nM	1260 nM
CCNC(=O)n1ncc2nccc(Nc3cc(-c4nc(C)ccc4F)ncc3C)c21 [Example 115, N-ethyl-7-(3′-fluoro-5,6′-dimethyl-2,2′-bipyridin-4-ylamino)-1H-pyrazolo[4,3-b]pyridine-1-carboxamide]	< 1 nM	6.31 nM
CNC(=O)n1ncc2nccc(Nc3cc(-c4cc(F)ccc4F)ncc3C)c21 [Example 116, 7-(2-(2,5-difluorophenyl)-5-methylpyridin-4-ylamino)-N-methyl-1H-pyrazolo[4,3-b]pyridine-1-carboxamide]	1 nM	25.1 nM
Cc1ccc(F)c(-c2cc(Nc3ccnc4cnn(CC(=O)NC5CC5)c34)c(C)cn2)n1 [Example 117, N-cyclopropyl-2-(7-(3′-fluoro-5,6′-dimethyl-2,2′-bipyridin-4-ylamino)-1H-pyrazolo[4,3-b]pyridin-1-yl)acetamide]	10 nM	126 nM
Cc1ccc(F)c(-c2cc(Nc3ccnc4cn(CC(=O)NC5CC5)nc34)c(C)cn2)n1 [Example 118, N-cyclopropyl-2-(7-(3′-fluoro-5,6′-dimethyl-2,2′-bipyridin-4-ylamino)-2H-pyrazolo[4,3-b]pyridin-2-yl)acetamide]	100 nM	794 nM
Cc1ccc(F)c(-c2cc(Nc3ccnc4cn(CCC(C)(C)O)nc34)ccn2)n1 [Example 119, 4-(7-(3′-fluoro-6′-methyl-2,2′-bipyridin-4-ylamino)-2H-pyrazolo[4,3-b]pyridin-2-yl)-2-methylbutan-2-ol]	20 nM	79.4 nM
Cc1ccc(F)c(-c2cc(Nc3ccnc4cn(CCC(C)(C)O)nc34)c(C)cn2)n1 [Example 120, 4-(7-(3′-fluoro-5,6′-dimethyl-2,2′-bipyridin-4-ylamino)-2H-pyrazolo[4,3-b]pyridin-2-yl)-2-methylbutan-2-ol]	20 nM	200 nM
Cc1ccc(F)c(-c2cc(Nc3ccnc4cn(C5CC5)nc34)ccn2)n1 [Example 121, 2-cyclopropyl-N-(3′-fluoro-6′-methyl-2,2′-bipyridin-4-yl)-2H-pyrazolo[4,3-b]pyridin-7-amine]	3.16 nM	12.6 nM
Cc1ccc(F)c(-c2cc(Nc3ccnc4cn(C5CC5)nc34)c(C)cn2)n1 [Example 122, 2-cyclopropyl-N-(3′-fluoro-5,6′-dimethyl-2,2′-bipyridin-4-yl)-2H-pyrazolo[4,3-b]pyridin-7-amine]	2 nM	10 nM
Cc1ccc(F)c(-c2cc(Nc3ccnc4cnn(C)c34)c(C)cn2)n1 [Example 124, N-(3′-fluoro-5,6′-dimethyl-2,2′-bipyridin-4-yl)-1-methyl-1H-pyrazolo[4,3-b]pyridin-7-amine]	3.98 nM	6.31 nM
CCn1cc2nccc(Nc3ccnc(-c4nc(C)ccc4F)c3)c2n1 [Example 125, 2-ethyl-N-(3′-fluoro-6′-methyl-2,2′-bipyridin-4-yl)-2H-pyrazolo[4,3-b]pyridin-7-amine]	15.8 nM	39.8 nM
